From PMC10610545, “Preclinical Evaluation of an Imidazole-Linked Heterocycle for Alzheimer’s Disease” (Pharmaceutics, 2023) come the findings set out here.

Where a name gives a salt, the structure may show the parent alone.

In data set [1] the test system is imidazoline I2 receptors (I2-IR). The experiment in a line: Competition binding against [3H]2-BFI, membranes from post-mortem human frontal cortex. As to conditions: for Selectivity I2/α2: antilog (pKi I2-IR − pKi α2-AR); for [3H]-2-BFI I2 pKi (One Site): monophasic fit; for [3H]-2-BFI I2 pKi (Two Sites), high affinity (pKiH) / [3H]-2-BFI I2 pKi (Two Sites), low affinity (pKiL): two-site model; for [3H]-2-BFI I2 pKi (Two Sites), high affinity (pKiH): high-affinity site; for [3H]-2-BFI I2 pKi (Two Sites), low affinity (pKiL): low-affinity site. The source says:
(§1) The inhibition constant (Ki) for each compound was obtained and is expressed as the corresponding pKi. The selectivity for these two receptors was expressed by the I2/α2 index, calculated as the antilogarithm of the […] between pKi values for I2-IR and pKi values for α2-AR.
(§2) Preparation of cellular membranes.
(§3) Human brain samples were obtained at autopsy in the Basque Institute of Legal Medicine, Bilbao, Spain. Samples from the prefrontal cortex (Brodmann’s area 9) were dissected at the time of autopsy and immediately stored at -70 °C until assay. The study was developed in compliance with policies of research and ethical review boards for postmortem brain studies.
(§4) To obtain cellular membranes (P2 fraction) the different samples were homogenized using an ultraturrax in 10 volumes of homogenization buffer (0.25 M sucrose, 5 mM Tris–HCl, pH 7.4).
(§5) The crude homogenate was centrifuged for 5 min at 1000 g (4 °C) and the supernatant was centrifuged again for 10 min at 40,000 g (4 °C). The resultant pellet was washed twice in 5 volumes of homogenization buffer and recentrifuged in similar conditions. Protein content was measured according to the method of Bradford using BSA as standard.
(§6) Competition Binding Assays.
(§7) The pharmacological activity of the compounds was evaluated through competition binding studies against the I2-IR selective radioligand [3H]2-BFI or the α2-adrenergic receptor selective radioligand [3H]RX821002. Specific binding was measured in 0.25 mL aliquots (50 mM Tris-HCl, pH 7.5) containing 100 µg of membranes, which were incubated in 96-well plates either with […]
(§8) Incubations were terminated by separating free ligand from bound ligand by rapid filtration […]
(§9) counted for radioactivity by liquid scintillation spectrometry using a MicroBeta TriLux counter (PerkinElmer). Specific binding was determined and plotted as a function of the compound concentration. Nonspecific binding was determined in the presence of idazoxan (10–5 M), a compound with well stablished affinity for I2-IR and α2-adrenergic receptors, in [3H]2-BFI and [3H]RX821002 assays. To obtain the inhibition constant (Ki) analyses of competition experiments were performed by nonlinear regression using the GraphPad Prism program. Ki values were normalized to pKi values. I2-IR/α2 selectivity index was calculated as the antilogarithm of the difference between pKi values for I2-IR and pKi values for α2-ARs.

For data set [2], the target named is α2-adrenergic receptor (α2-AR). The experiment in a line: Competition binding against [3H]RX821002, membranes from post-mortem human frontal cortex.
From the text: as §1, §2, §3, §4, §5, §6, §7, §8, §9

Data set [3] is described as follows: PAMPA-BBB permeation assay. Format: in vitro ADME, porcine. As to conditions: pig, PBS/EtOH (70:30), mean ± SD, read-out: Permeability Pe. The procedure: In vitro Blood-Brain Barrier Permeation Assay
To evaluate the brain penetration of the different compounds, a parallel artificial membrane permeation assay for blood-brain barrier was used, following the method described by Di et al.1 The in vitro permeability (Pe) of fourteen commercial drugs (see Table S1) through lipid extract of porcine brain membrane together with the test compounds were determined. Commercial drugs and assayed compounds were tested using a mixture of PBS:ETOH (70:30). Assay validation was made by comparing the experimental permeability with the reported values of the commercial drugs by bibliography and lineal correlation between experimental and reported permeability of the fourteen commercial drugs using the parallel artificial membrane permeation […]
From this equation and taking into account the limits established by Di et al. for BBB permeation, we established the ranges of permeability […]
predictive penetration in the CNS used as references.
1 Di, L.; Kerns, E. H.; Fan, K.; McConnell, O. J.; and Carter, G. T. High throughput artificial membrane permeability assay for blood-brain barrier.
Background: PAMPA measures passive passage across an artificial lipid membrane.

For the compound `c1ccc(-c2ncc3cc(-n4ccnc4)ccc3n2)cc1` [CR4056], in data set [1], the “Selectivity I2/α2” value amounted to 1995 and the “[3H]-2-BFI I2 pKi (One Site)” value is 5.95 ± 0.11.
A word on the Ki: it is a measure of affinity in units of concentration, obtained from inhibition or displacement. Regarding `c1ccc2oc(C3=NCCN3)cc2c1` [Compound 2-BFI, 2-(2-benzofuranyl)-2-imidazoline], the “[3H]-RX821002 α2 pKi” value in data set [2] turned out to be 4.58 ± 0.22. In data set [1], the “Selectivity I2/α2” value is given as 5370; the “[3H]-2-BFI I2 pKi (One Site)” value worked out at 8.31 ± 0.13; the “[3H]-2-BFI I2 pKi (Two Sites), high affinity (pKiH)” value (from here on “[3H]-2-BFI I2 pKi … (pKiH)”) amounted to 9.08 ± 0.22; the “[3H]-2-BFI I2 pKi (Two Sites), low affinity (pKiL)” value (“[3H]-2-BFI I2 pKi … (pKiL)” for short) is on record as 7.15 ± 0.31. Also, the inhibition constant Ki in data set [1] (corresponds to pKiH, read-out: Ki of the high-affinity I2 site) was determined as 1 nM.
With `c1ccc2c(c1)OCC(C1=NCCN1)O2` (stereo not drawn) [Idazoxan], the “[3H]-RX821002 α2 pKi” value in data set [2] is listed as 7.92 ± 0.07. Also, in data set [1], the “[3H]-2-BFI I2 pKi (One Site)” value is 7.41 ± 0.63; the “[3H]-2-BFI I2 pKi … (pKiH)” value was 7.87 ± 0.74; the “[3H]-2-BFI I2 pKi … (pKiL)” value is 5.76 ± 0.57.
With `Cl.c1ccc2[nH]c(-n3ccnc3)cc2c1` [LSL29, 2-Imidazol-1-yl-1H-indole hydrochloride], the “[3H]-RX821002 α2 pKi” value in data set [2] is recorded as 4.99 ± 0.18. The Papp in data set [3] was determined as 10.8 ± 0.4 ×10⁻⁶ cm/s. Moreover, in data set [1], the “[3H]-2-BFI I2 pKi (One Site)” value is 4.57 ± 0.23; the “[3H]-2-BFI I2 pKi … (pKiH)” value turned out to be 8.54 ± 0.71; the “[3H]-2-BFI I2 pKi … (pKiL)” value turned out to be 4.09 ± 0.22.
As for `Cl.c1ccc2nc(-n3ccnc3)ccc2c1` [LSL35, 1-(Quinoline-2-yl)-1H-imidazole hydrochloride], the “[3H]-RX821002 α2 pKi” value in data set [2] is listed as 5.24 ± 0.26. In data set [3], the Papp is 16.2 ± 0.9 ×10⁻⁶ cm/s. Further, the “[3H]-2-BFI I2 pKi (One Site)” value in data set [1] came out at 5.49 ± 0.14.
Take `c1ccc2c(c1)OCC(c1ncc[nH]1)O2` (stereo not drawn) [LSL39, 2-(2,3-Dihydrobenzo[1, 4]dioxin-2-yl)-1H-imidazole hydrochloride]: the “[3H]-RX821002 α2 pKi” value in data set [2] is 3.97 ± 0.25. Also, the “[3H]-2-BFI I2 pKi (One Site)” value in data set [1] worked out at 6.10 ± 0.25.
Regarding `Cl.c1ccc2nc(-c3ncc[nH]3)ccc2c1` [LSL42, 2-(Quinoline-2-yl)-1H-imidazole hydrochloride], the “[3H]-RX821002 α2 pKi” value in data set [2] turned out to be 5.32 ± 0.24. In addition, the Papp in data set [3] is 5.8 ± 0.2 ×10⁻⁶ cm/s. Also, the “[3H]-2-BFI I2 pKi (One Site)” value in data set [1] is reported as 5.24 ± 0.12.
Consider `C(=C\c1ccccc1)/C1=NCCN1` [Tracizoline, reference compound], for which, in data set [2] (Table S3, new ligands and known I2-IR ligands), the “pKi (exp) α2” value was 4.330. Further, the “pKi (exp) I2” value in data set [1] (Table S2, new ligands and known I2-IR ligands) is 7.580.
